The test system of data set [1] is HIV-1. In words: Inhibition of HIV-1 by HIV-1 fusion inhibitors (Table S1). Type of data set: cell-based. The note with it: Table S1, in words only.
Data set [2] concerns SARS-CoV-2. In words: Inhibition of SARS-CoV-2 by HIV-1 fusion inhibitors (Table S1). Format: cell-based. The note with it: at a concentration as high as 25 or 50 μM (Table S1).
The subject of data set [3] is TZM-bl cells.
The test system of data set [4] is H7N9 pseudovirus. As to conditions: 48 h.
Data set [5] has as its system HIV-1NL4-3 pseudovirus.
The test system of data set [6] is H5N1 pseudovirus. The note with it: 48 h.
For data set [7], the system named is SIV239 pseudovirus. As to conditions: 48 h.
In data set [8] the test system is HEK293T cells.
In data set [9] the test system is SIVPBJ pseudovirus. As to conditions: 48 h.
Data set [10] relates to RSV pseudovirus. As to conditions: 48 h.
For data set [11], the system named is primary HIV-1 Envs. In words: DSP-based cell–cell fusion assay, panel of primary HIV-1 Envs.
Data set [12] deals with HIV-2ROD. As to conditions: read-out: IC50, inhibition of HIV-2ROD infection; Fig 2A; replication-competent virus, TZM-bl cells, 48 h; mean IC50, repeated three times.
In data set [13] the test system is gp41 HR1-derived peptides (N42, N36, and N38). The experiment in a line: Size-exclusion chromatography of EK1 with gp41 HR1-derived peptides. Format: binding, HIV-1. The note with it: molar ratio 1:1, 0.2 mM, 0.05M sodium phosphate pH 7.2, 37°C 30 min; Superdex-75. The protocol:
The binding between EK1 peptide and a target mimic peptide derived from the HR1 sequence of gp41 was analysed by size-exclusion chromatography. In brief, EK1 was mixed with N42, N36 or N38 (molar ratio of 1:1) in 0.05M sodium phosphate (pH 7.2) at a final concentration of 0.2 mM, and then incubated at 37°C for 30 min. The mixture was applied to the Superdex-75 10/300 GL (GE Healthcare, Piscataway, NJ, USA) equilibrated with 50 mM sodium phosphate and eluted at 0.8 ml/min, and fractions were monitored at 214 nm.

For data set [14], the system named is HIV-1NL4-3 Env. Type of data set: cell-based. As to conditions: Table 2; HIV-1NL4-3 Env-mediated cell–cell fusion; triplicate, repeated three times; read-out: IC50 ± SD, Env cell fusion.
The subject of data set [15] is HIV-2ST. As to conditions: read-out: IC50, inhibition of HIV-2ST infection; Fig 2B; replication-competent virus, TZM-bl cells, 48 h; mean IC50, repeated three times.
[16] abbreviates: HIV-1 Env 246_F3_C10_2, subtype A/C, triplicate, repeated three times, read-out: Cell fusion (IC50±SD).
The mark [17] stands for this setting: HIV-1 Env 398-F1_F6_20, subtype A, triplicate, repeated three times, read-out: Cell fusion (IC50±SD).
The mark [18] stands for this setting: HIV-1 Env BJOX002000.03.2, subtype B/C, triplicate, repeated three times, read-out: Cell fusion (IC50±SD).
Where [19] appears, read: HIV-1 Env CE1176_A3, subtype C, triplicate, repeated three times, read-out: Cell fusion (IC50±SD).
The mark [20] stands for this setting: HIV-1 Env CE703010217_B6, subtype C, triplicate, repeated three times, read-out: Cell fusion (IC50±SD).
The mark [21] stands for this setting: HIV-1 Env CH119.10, subtype B/C, triplicate, repeated three times, read-out: Cell fusion (IC50±SD).
The mark [22] stands for this setting: HIV-1 Env CNE8, subtype A/E, triplicate, repeated three times, read-out: Cell fusion (IC50±SD).
Setting [23] is: HIV-1 Env CNE55, subtype A/E, triplicate, repeated three times, read-out: Cell fusion (IC50±SD).
The mark [24] stands for this setting: HIV-1 Env HIV_25710-2.43, subtype C, triplicate, repeated three times, read-out: Cell fusion (IC50±SD).
Setting [25] is: HIV-1 Env SF162, subtype B, triplicate, repeated three times, read-out: Cell fusion (IC50±SD).
[26] abbreviates: HIV-1 Env TRO.11, subtype B, triplicate, repeated three times, read-out: Cell fusion (IC50±SD).
Where [27] appears, read: HIV-1 Env X1632-S2-B10, subtype G, triplicate, repeated three times, read-out: Cell fusion (IC50±SD).
The mark [28] stands for this setting: HIV-1 Env X2278_C2_B6, subtype B, triplicate, repeated three times, read-out: Cell fusion (IC50±SD).
The mark [29] stands for this setting: Mean over 14 primary HIV-1 Envs of Table 1, read-out: Cell fusion, mean IC50 over the panel.

Where two headings read alike, the source gives them in different places. Where a SMILES comes first, the peptide text is derived from it. The star is where a group is joined. Succinyl(4-O-cholesteryl) = CC(C)CCC[C@@H](C)[C@H]1CC[C@H]2[C@@H]3CC=C4C[C@@H](OC(=O)CCC(=O)*)CC[C@]4(C)[C@H]3CC[C@]12C

Regarding sifuvirtide, the “Inhibition of HIV-1” value in data set [1] is recorded as “potently inhibited HIV-1”. Moreover, in data set [2], the “Inhibitory activity against SARS-CoV-2” value is “none was found to have inhibitory activity”.

In the case of albuvirtide, in data set [1], the “Inhibition of HIV-1” value is listed as “potently inhibited HIV-1”. Besides, the “Inhibitory activity against SARS-CoV-2” value in [2] is given as “none was found to have inhibitory activity”.

As a reminder, the IC50 is the concentration that gives 50% inhibition. As to `CC[C@H](C)[C@H](NC(=O)[C@H](C)NC(=O)[C@H](CCC(=O)O)NC(=O)[C@H](CCC(=O)O)NC(=O)[C@H](CC(C)C)NC(=O)[C@H](CCCCN)NC(=O)[C@H](CCCCN)NC(=O)[C@H](CCSC)NC(=O)[C@H](CCC(=O)O)NC(=O)[C@H](Cc1ccc(O)cc1)NC(=O)[C@H](CCC(=O)O)NC(=O)[C@H](CC(C)C)NC(=O)[C@H](CC(=O)O)NC(=O)[C@H](CC(C)C)NC(=O)[C@H](Cc1ccccc1)NC(=O)[C@@H](NC(=O)[C@@H](NC(=O)[C@H](CC(N)=O)NC(=O)[C@@H](NC(=O)[C@H](CCC(N)=O)NC(=O)[C@H](CC(=O)O)NC(=O)[C@H](CC(C)C)NC(=O)[C@H](CO)NC(C)=O)[C@@H](C)CC)C(C)C)[C@@H](C)O)C(=O)N[C@@H](CCCCN)C(=O)N[C@@H](CCCCN)C(=O)N[C@@H](CC(C)C)C(=O)N[C@@H](CCC(=O)O)C(=O)N[C@@H](CCC(=O)O)C(=O)N[C@@H](CO)C(=O)N[C@@H](Cc1ccc(O)cc1)C(=O)N[C@H](C(=O)N[C@@H](CC(=O)O)C(=O)N[C@@H](CC(C)C)C(=O)N[C@@H](CCCCN)C(=O)N[C@@H](CCC(=O)O)C(=O)N[C@@H](CC(C)C)C(=O)N[C@@H](CCCCNC(=O)CCC(=O)O[C@H]1CC[C@@]2(C)C(=CC[C@H]3[C@@H]4CC[C@H]([C@H](C)CCCC(C)C)[C@@]4(C)CC[C@@H]32)C1)C(N)=O)[C@@H](C)CC` [EK1V1] (Ac-SLDQINVTFLDLEYEMKKLEEAIKKLEESYIDLKELK(Succinyl(4-O-cholesteryl))-NH2; N-terminus and C-terminus assumed), the “Cytotoxicity on TZM-bl cells” value in [3] is recorded as “none of them at a concentration of 10 or 25 μM showed significant cytotoxic effects”. The IC50 in data set [4] was more than 25 µM; in data set [5] (1NL4-3 pseudovirus, 48 h), 39.8 nM; in data set [5] (Table 3, […], mean ± SD, triplicate, repeated three times), 40 ± 2 nM; in [6] it was more than 25 µM; in [7], 1430 nM; in data set [9] it was 310 nM. The IC50 was more than 25 µM in [10]; 50 ± 10 nM in [11] (setting [16]); 170 ± 10 nM in data set [11] (setting [17]); 70 ± 10 nM in data set [11] (setting [18]); 350 ± 100 nM in [11] (setting [19]); 40 ± 10 nM in [11] (setting [20]). The concentration for half-maximal inhibition (IC50) in data set [11] (setting [21]) turned out to be 20 ± 4 nM; in data set [11] (setting [22]), 490 ± 90 nM; in [11] (setting [23]) it was 130 ± 30 nM; in data set [11] (setting [24]), 170 ± 30 nM; in data set [11] (setting [25]), 50 ± 10 nM; in [11] (setting [26]) it was 680 ± 170 nM. Besides, the IC50 in data set [11] (setting [27]) was found to be 40 ± 10 nM; in data set [11] (setting [28]), 50 ± 4 nM; in data set [11] (setting [29]), 170 nM. The n-fold in [5] came out at 1. In addition, the “Cytotoxicity on HEK293T cells” value in data set [8] was “none of them at a concentration of 10 or 25 μM showed significant cytotoxic effects”.

As for “SLDQINVTFLDLEYEMKKLEEAIKKLEESYIDLKEL-GSGSG-PEG4-C(Chol) [EK1C4]”, the “Cytotoxicity on TZM-bl cells” value in data set [3] was “none of them at a concentration of 10 or 25 μM showed significant cytotoxic effects”. The “Cytotoxicity on HEK293T cells” value in data set [8] is “none of them at a concentration of 10 or 25 μM showed significant cytotoxic effects”.

Take `CC[C@H](C)[C@H](NC(=O)[C@H](C)NC(=O)[C@H](CCC(=O)O)NC(=O)[C@H](CCC(=O)O)NC(=O)[C@H](CC(C)C)NC(=O)[C@H](CCCCN)NC(=O)[C@H](CCCCN)NC(=O)[C@H](CCSC)NC(=O)[C@H](CCC(=O)O)NC(=O)[C@H](Cc1ccc(O)cc1)NC(=O)[C@H](CCC(=O)O)NC(=O)[C@H](CC(C)C)NC(=O)[C@H](CC(=O)O)NC(=O)[C@H](CC(C)C)NC(=O)[C@H](Cc1ccccc1)NC(=O)[C@@H](NC(=O)[C@@H](NC(=O)[C@H](CC(N)=O)NC(=O)[C@@H](NC(=O)[C@H](CCC(N)=O)NC(=O)[C@H](CC(=O)O)NC(=O)[C@H](CC(C)C)NC(=O)[C@H](CO)NC(C)=O)[C@@H](C)CC)C(C)C)[C@@H](C)O)C(=O)N[C@@H](CCCCN)C(=O)N[C@@H](CCCCN)C(=O)N[C@@H](CC(C)C)C(=O)N[C@@H](CCC(=O)O)C(=O)N[C@@H](CCC(=O)O)C(=O)N[C@@H](CO)C(=O)N[C@@H](Cc1ccc(O)cc1)C(=O)N[C@H](C(=O)N[C@@H](CC(=O)O)C(=O)N[C@@H](CC(C)C)C(=O)N[C@@H](CCCCN)C(=O)N[C@@H](CCC(=O)O)C(=O)N[C@@H](CC(C)C)C(N)=O)[C@@H](C)CC` [EK1]: in data set [3], the “Cytotoxicity on TZM-bl cells” value is reported as “none of them at a concentration of 10 or 25 μM showed significant cytotoxic effects”. In addition, the 50% inhibitory concentration (IC50) is more than 25 µM in data set [4]; more than 12.5 µM in data set [12]; more than 25 µM in data set [6]; more than 12500 nM in data set [7]; more than 12500 nM in [9]; more than 25 µM in [10]. Also, the IC50 in data set [14] was more than 5 µM; in data set [11] (setting [16]) it was more than 5000 nM; in [11] (setting [17]), more than 5000 nM; in [11] (setting [18]), more than 5000 nM; in data set [11] (setting [19]) it was more than 5000 nM; in data set [11] (setting [20]) it was more than 5000 nM. Further, the IC50 is more than 5000 nM in data set [11] (setting [21]); more than 5000 nM in [11] (setting [22]); more than 5000 nM in data set [11] (setting [23]); more than 5000 nM in data set [11] (setting [24]); more than 5000 nM in [11] (HIV-1 Env JRFL, subtype B, triplicate, repeated three times, read-out: Cell fusion (IC50±SD)); more than 5000 nM in data set [11] (setting [25]). The IC50 in [11] (setting [26]) was more than 5000 nM; in data set [11] (setting [27]), more than 5000 nM; in [11] (setting [28]), more than 5000 nM; in data set [11] (setting [29]), more than 5000 nM; in data set [15] it was more than 12.5 µM. Further, in [8], the “Cytotoxicity on HEK293T cells” value is “none of them at a concentration of 10 or 25 μM showed significant cytotoxic effects”. Moreover, the “Complex formation with gp41 HR1-derived peptides N42, N36, N38 by size-exclusion chromatography” value in [13] is on record as “could form peptide complexes”.

Enfuvirtide: the IC50 in [7] stood at 390 nM; in data set [9] it was 480 nM. The “Inhibition of HIV-1” value in data set [1] is on record as “potently inhibited HIV-1”. Besides, the “Inhibitory activity against SARS-CoV-2” value in data set [2] is on record as “none was found to have inhibitory activity”.

The record behind these values is paper PMC8812798 (Emerging Microbes & Infections, 2021).
